Measured values as given in patent US20060111305A1, “Metabolites of certain [1,4]diazepino[6,7,1-ij]quinoline derivatives and methods of preparation and use thereof” (Wyeth, priority 2004, published 2006).
Where a name gives a salt, the structure may show the parent alone. Read-outs that look alike come from different tables or passages of the source. Marks after values point to notes of the source that are not given here.

Legend:
[1] = Rat plasma metabolite profiles after single oral 5 mg/kg [14C]DCDQ; assay type: in vivo, Sprague-Dawley rats; settings: for concentration at 2 h / concentration at 8 h / concentration at 4 h: Sprague-Dawley, rat, plasma, mean n = 3, read-out: Estimated plasma concentration in rats; for Chromatographic distribution of radioactivity in rat plasma / Estimated plasma concentration in rats: mean n = 3
Procedure: Plasma samples were analyzed for metabolite profiles by HPLC. Aliquots of 1.5 mL plasma were mixed with 3.0 mL methanol, placed on ice for about 10 minutes, and then centrifuged. The supernatant was transferred to a clean tube. The protein pellets were extracted once with 3.0 mL methanol. The supernatants from precipitation and extraction of each sample were pooled, mixed, and evaporated at 22° C. under nitrogen in a Zymark TurboVap LV (Caliper Life Sciences, Hopkinton, Mass.) to about 0.3 mL. The concentrated extract was centrifuged, the supernatant volume measured and extraction efficiency was determined by analyzing duplicate 10 μL aliquots for radioactivity. An aliquot of the supernatant (50-200 μL) was analyzed by HPLC with radioactivity flow detection. Plasma extracts were also analyzed by LC/MS.
(§1) A Waters model 2690 HPLC system (Waters Corp., Milford, Mass.) with a built-in autosampler was used for analysis. Separations were accomplished on a Phenomenex Luna C18(2) column (150×2.0 mm, 5 μm) (Phenomenex, Torrance, Calif.). The sample chamber of the autosampler was maintained at 4° C., while the column was at ambient temperature of about 20° C. A variable wavelength UV detector set to monitor 250 nm and a Flo-One β Model A525 radioactivity detector described above were used for data acquisition. The HPLC mobile phase consisted of 10 mM ammonium acetate, pH 4.5 (A) and methanol (B), and was delivered at 0.2 mL/min. Chromatographic condition A was used for dose analysis, while condition B was used for analysis of urine and plasma, brain and fecal extracts.

[2] = Metabolites of DCDQ identified in rats by LC/MS analysis (Table 18); assay type: in vivo, Sprague-Dawley rats; settings: P = plasma, U = urine, B = brain, F = feces
Procedure: An Agilent Model 1100 HPLC system (Agilent Technologies, Wilmington, Del.) including an autosampler and diode array UV detector was used for LC/MS analysis of plasma and urine samples. The UV detector was set to monitor 200 to 400 nm. For selected LC/MS analyses, radiochromatograms were acquired using a β-Ram model 3 radioactivity flow detector (IN/US Systems Inc., Tampa, Fla.) equipped with a solid scintillant flow cell. Fecal samples were also analyzed using a Waters Alliance model 2690 HPLC system. It was equipped with a built-in autosampler and a model 996 diode array UV detector set to 210-350 nm. The HPLC flow was split between a Radiomatic model 150TR flow scintillation analyzer (Perkin Elmer) and the mass spectrometer. Other HPLC conditions were the same as condition B described above.
The mass spectrometer used for metabolite characterization for plasma and urine was a Micromass Q-TOF-2 quadrupole time-of-flight hybrid mass spectrometer (Waters). The mass spectrometer was equipped with an electrospray ionization (ESI) interface and operated in the positive ionization mode. Collision energy settings of 5 and 30 eV were used for full MS and MS/MS scans, respectively. Settings for the mass spectrometer are listed below.
A Micromass Quattro Micro mass spectrometer (Waters) was also used to analyze the fecal samples. It was equipped with an electrospray ionization (ESI) interface and operated in the positive ionization mode. Settings for the mass spectrometer are listed below.
LC/MS/MS in the selected reaction-monitoring (SRM) mode (LC/SRM) was conducted with the triple quadruple mass spectrometer to monitor DCDQ and its metabolites in fecal samples. The transitions monitored are listed below.

[3] = Rat urinary excretion and metabolite profiles after single oral 5 mg/kg [14C]DCDQ; assay type: in vivo, Sprague-Dawley rats; settings: oral 5 mg/kg, mean n = 3
Procedure: (§2) At sacrifice, blood samples were collected by cardiac puncture into tubes containing EDTA as the anticoagulant and placing them on ice. Aliquots of 50 μL were removed for combustion and determination of radioactivity content. Plasma was immediately obtained from the remaining blood by centrifugation at 4° C. Brains were excised after perfusion with 50 mL of chilled sterile saline. Urine samples were collected on dry ice at intervals of 0-8 and 8-24 hour post-dosing. Feces were collected at intervals of 0-8 and 8-24 hr post-dosing at room temperature and were homogenized as described previously. The biological specimens and aliquots of the dosing solution at pre- and post-dose were stored at approximately −70° C. until analyzed.
Plasma (20 μL) and urine (50 μL) aliquots were analyzed for radioactivity concentrations. Radioactivity determinations of dose, plasma and urine were made with a Tri-Carb Model 3100 TR/LL liquid scintillation counter (LSC) (Perkin Elmer) using 10 mL of Ultima Gold as the scintillation fluid.
Urine was analyzed for radioactivity concentration as and analyzed for metabolite profiles by direct injection onto the HPLC column. LC/MS analyses for metabolite identification were also carried out with urine samples.
as §1

[4] = Dog fecal excretion and metabolite profiles after oral capsule of [14C]DCDQ; assay type: in vivo, beagle dogs
Procedure: Blood samples were collected from the jugular vein at 2, 4, 8, 24 and 48 hour after dose administration into tubes containing potassium EDTA as the anticoagulant and then placed on ice. Aliquots of 50 μL were removed for combustion and determination of radioactivity content. Plasma was immediately obtained from the remaining blood by centrifugation at 4° C. Urine samples were collected into tubes on dry ice at intervals of 0-8, 8-24 and 24-48 hour post-dose. Fecal samples were collected at intervals of 0-8, 8-24 and 24-48 hour post-dose at room temperature, and were homogenized. The biological specimens were stored at approximately −70° C. until analysis.
Feces were weighed and homogenized in water at a volume-to-weight ratio of about 5:1. Aliquots of blood (200 μL) and fecal homogenates (0.25-0.53 gram) were placed on Combusto-cones with Combusto-pads and combusted. A model 307 Tri-Carb sample oxidizer, equipped with an Oximate-80 robotic automatic sampler (Perkin Elmer), was used for combustion of blood and fecal samples. The liberated ^14CO2 was trapped with Carbo-Sorb E carbon dioxide absorber, mixed with PermaFluor® E+ liquid scintillation cocktail, and counted on a Tri-Carb Model 3100 TR/LL liquid scintillation counter (Perkin Elmer). The efficiency of combustion was 98.9%.
(§3) Fecal homogenates were analyzed for metabolite profiles. Aliquots of 1 gram of fecal homogenate were mixed with 2 mL methanol, placed on ice for about 10 minutes and centrifuged. The supernatant was transferred to a clean tube. The residue was extracted three times with 2 mL of a water:methanol (3:7) mixture. The supernatants from each sample were combined, evaporated to about 1 mL, and centrifuged. Extraction efficiency was determined by analyzing aliquots of 10 μL of the supernatant for radioactivity. An aliquot (50-200 μL) of the supernatant was analyzed by HPLC with radioactivity flow detection for metabolite profiles. Samples were also analyzed by LC/MS to characterize the radioactive peaks.
as §1, with “detector” for “detector described above”, “acetonitrile” for “methanol”

[5] = Rat fecal excretion and metabolite profiles after single oral 5 mg/kg [14C]DCDQ; assay type: in vivo, Sprague-Dawley rats; settings: male rats, 8-24 hour fecal extracts
Procedure: as §2
Brain and fecal samples were weighed and homogenized in water at volume-to-weight ratios of about 1:1 and 5:1, respectively. Blood aliquots (50 μL), brain homogenates (0.1 gram) and fecal homogenates (0.2 gram) were placed on Combusto-cones with Combusto-pads and combusted. A model 307 Tri-Carb Sample Oxidizer, equipped with an Oximate-80 Robotic Automatic Sampler (Perkin Elmer), was used for combustion. The liberated ^14CO2 was trapped with Carbo-Sorb E carbon dioxide absorber, mixed with PermaFluor® E+ liquid scintillation cocktail, and counted in a Tri-Carb Model 3100 TR/LL liquid scintillation counter (Perkin Elmer). The oxidation efficiency of the oxidizer was 98.2%.
as §3, with “of fecal homogenates were mixed” for “of fecal homogenate were mixed”, “The supernatants of each sample” for “The supernatants from each sample”, “detection for profiling. Samples were” for “detection for metabolite profiles. Samples were”
as §1, with “Chromatographic condition A was used for dose analysis, while condition B was used for analysis of urine and plasma, brain and fecal extracts.” left out

| SMILES | concentration at 2 h ([1]; female, 2 hr) | concentration at 8 h ([1]; female, 8 hr) | concentration at 2 h ([1]; male, 2 hr) | concentration at 4 h ([1]; male, 4 hr) | concentration at 8 h ([1]; male, 8 hr) | Chromatographic distribution of radioactivity in rat plasma ([1]; female, 2 hr) | Chromatographic distribution of radioactivity in rat plasma ([1]; female, 8 hr) | Chromatographic distribution of radioactivity in rat plasma ([1]; male, 2 hr) | Chromatographic distribution of radioactivity in rat plasma ([1]; male, 4 hr) | Chromatographic distribution of radioactivity in rat plasma ([1]; male, 8 hr) | Matrix [2] | Estimated plasma concentration in rats ([1]; male, 2 hr) | Estimated plasma concentration in rats ([1]; male, 4 hr) | Estimated plasma concentration in rats ([1]; male, 8 hr) | also measured |
| --- | --- | --- | --- | --- | --- | --- | --- | --- | --- | --- | --- | --- | --- | --- | --- |
| OC1CNCc2cccc3c2N1C[C@@H]1CCC[C@H]31 (some centres unmarked) [Metabolite M10, hydroxy DCDQ] | 35.2 ng/mL | 18.9 ng/mL | 23.7 ng/mL | 9.81 ng/mL | 13.2 ng/mL | 5.2% | 5.6% | 3.6% | 1.5% | 3.0% | U, B, F | – | – | – | Chromatographic distribution of radioactivity in male rat urine ([3]; 0-8 hr): 3.32%; Percentage of dose for urinary metabolites in rats ([3]; 0-8 hr): 1.08%; Percentage of dose for urinary metabolites in rats ([3]; 0-24 hr): 1.99%; Chromatographic distribution of radioactivity in male rat urine ([3]; 8-24 hr): 2.70%; Percentage of dose for urinary metabolites in rats ([3]; 8-24 hr): 0.91% |
| O=S(=O)(O)N1CCN2C[C@@H]3CCC[C@@H]3c3cccc(c32)C1 [Metabolite M12, DCDQ sulfamate] | 33.8 ng/mL | 11.8 ng/mL | – | – | – | 5.2^e % | 3.3% | BQL^c | BQL | BQL | P, U | BQL^c | BQL | BQL | – |
| O=S(=O)(O)OC1CC[C@@H]2c3cccc4c3N(CCNC4)CC12 (some centres unmarked) [Metabolite M13, 17-hydroxy DCDQ sulfate] | 16.6 ng/mL | 5.62 ng/mL | 11.6 ng/mL | 14.2 ng/mL | 6.33 ng/mL | 2.6% | 1.6% | 1.9% | 2.2% | 1.4% | – | – | – | – | – |
| O=S(=O)(O)N1CCN2CC3=CCC=C3c3cccc(c32)C1 [Metabolite M14, di-dehydro DCDQ sulfamate] | 25.1 ng/mL | 16.5 ng/mL | – | – | – | 4.0^d % | 4.9^d % | BQL | BQL | BQL | P, U | BQL | BQL) | BQL | – |
| O=C1NCCN2C[C@@H]3CCC[C@@H]3c3cccc1c32 [Metabolite M18, keto DCDQ] | – | – | – | – | – | – | – | – | – | – | – | – | – | – | % of total radioactivity in fecal extracts [4]: up to 16.4%; metabolite detected in feces [4]: detected |
| CC(=O)N1Cc2cccc3c2N(C[C@@H]2CCC[C@H]32)C(O)C1 (some centres unmarked) [Metabolite M11, acetylated hydroxy DCDQ] | 41 ng/mL | 16.6 ng/mL | 37.2 ng/mL | 34.5 ng/mL | 16.3 ng/mL | 6.1% | 4.9% | 6.0% | 5.2% | 3.6% | P, B, F | – | – | – | relative abundance in fecal extracts [5]: major metabolites |
